In brackets after ≈: the same amount, converted by molar mass.

Data set [1] can be described thus: Toxicity in brine shrimp larvae. In kind it is organism-based. Particulars: artemia, in vivo.
A further data set concerns P388. In words: Cytotoxicity against mouse P388 cells. The conditions noted are these: read-out: ED50 (the source's name). Type of data set: functional.

Turning to `CC(O)C#CC#CC#CC#CCCCCCCCC(=O)O` (single isomer, unassigned; (-)), the LC50 in data set [1] is 5.06 µg/mL (≈ 17.8 µM). For the same compound, in the data set on P388, the EC50 was found to be 0.53 µg/mL (≈ 1.86 µM).

Broadly, the LC50 is the concentration that kills 50% of the test population.

(Values after ChEMBL document CHEMBL1147280, “Isolation Of A Novel Cytotoxic Polyacetylene From A Traditional Anthelmintic Medicinal Plant, Minquartia guianensis” (J Nat Prod, 1989).)
